How the values were obtained:
[1] = biological target: T1, CYP26A (P450RAI-1) (Homo sapiens, UniProt O43174); assay: Cell-based inhibition of RA metabolism in CYP26A stably transfected HeLa cells; settings: stably transfected HeLa cells, [3H]-RA, 3 hours at 37° C.; read-out: P450RAI-1 Whole cell IC50
T1 construct: expressed in transfected cells; host or cells: HeLa
T1 sequence (O43174 1-497): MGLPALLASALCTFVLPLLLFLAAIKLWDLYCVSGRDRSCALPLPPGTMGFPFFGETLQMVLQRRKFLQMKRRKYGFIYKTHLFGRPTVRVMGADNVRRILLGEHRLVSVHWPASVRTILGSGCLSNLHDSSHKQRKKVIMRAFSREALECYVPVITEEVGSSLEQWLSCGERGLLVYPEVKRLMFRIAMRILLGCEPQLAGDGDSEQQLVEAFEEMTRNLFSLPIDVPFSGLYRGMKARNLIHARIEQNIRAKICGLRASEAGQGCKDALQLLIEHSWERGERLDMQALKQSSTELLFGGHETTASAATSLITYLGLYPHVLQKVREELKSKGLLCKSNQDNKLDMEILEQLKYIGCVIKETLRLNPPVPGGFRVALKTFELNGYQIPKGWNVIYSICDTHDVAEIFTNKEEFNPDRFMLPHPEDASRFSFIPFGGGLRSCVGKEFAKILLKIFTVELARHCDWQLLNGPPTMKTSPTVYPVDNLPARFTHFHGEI
Method: (§1) In brief, CYP26A or CYP26B can be stably transfected into HeLa cells. Exponentially growing cells are harvested by incubating in trypsin. Cells are then washed and plated in a 48-well plate at 5×10^5 cells in 0.2 ml MEM medium containing 10% FBS and 0.05 μCi [^3H]-RA in the presence or absence of increasing concentrations of the test compounds. The compounds are diluted in 100% DMSO and then added in triplicate wells at either 10, 1 or 0.1 μM final concentration. As a positive control for RA metabolism inhibition, cells are also incubated with ketoconazole at 100, 10 and 1 μM. Cells are incubated for 3 hours at 37 degrees C. The retinoids are then extracted using the procedure of Bligh et al., Canadian Journal of Biochemistry 37: 911-917 (1959), modified by using methylenechloride instead of chloroform. This publication by Bligh et al., is specifically incorporated herein by reference. The water soluble radioactivity is quantified using a β scintillation counter, and IC50 values are determined.
(§2) CYP26A and CYP26B stably transfected HeLa cells were maintained in 100 mm tissue culture dishes in MEM medium containing 10% FBS and 100 μg/ml hygromycin.
(§3) Exponentially growing cells were harvested by incubating in trypsin. Cells were then washed with 1×PBS and plated in a 48-well plate at 5×10^5 cells in 0.2 ml MEM medium containing 10% FBS and 0.05 μCi [^3H]-RA in the presence or absence of increasing concentrations of the test compounds. The compounds were diluted in 100% DMSO and then added to triplicate wells at final concentrations of 10, 1 or 0.1 μM. As a positive control for RA metabolism inhibition, cells were also incubated with ketoconazole at 100, 10 and 1 μM. Cells were incubated for 3 hours at 37° C. The retinoids were then extracted using a modified Bligh and Dyer procedure (Bligh and Dyer, supra (1959)), in which methylene-chloride, as opposed to chloroform, was used, and the aqueous soluble radioactivity quantified using a β-scintillation counter. ID50 values represent the concentration of inhibitor required to inhibit RA metabolism by 50 percent and were derived manually from log-transformed data.

[2] = biological target: T2, CYP26B (P450RAI-2) (Homo sapiens, UniProt Q9NR63); assay: Cell-based inhibition of RA metabolism in CYP26B stably transfected HeLa cells; settings: stably transfected HeLa cells, [3H]-RA, 3 hours at 37° C.; read-out: P450RAI-2 Whole cell IC50
T2 construct: expressed in transfected cells; host or cells: HeLa
T2 sequence (Q9NR63 1-512): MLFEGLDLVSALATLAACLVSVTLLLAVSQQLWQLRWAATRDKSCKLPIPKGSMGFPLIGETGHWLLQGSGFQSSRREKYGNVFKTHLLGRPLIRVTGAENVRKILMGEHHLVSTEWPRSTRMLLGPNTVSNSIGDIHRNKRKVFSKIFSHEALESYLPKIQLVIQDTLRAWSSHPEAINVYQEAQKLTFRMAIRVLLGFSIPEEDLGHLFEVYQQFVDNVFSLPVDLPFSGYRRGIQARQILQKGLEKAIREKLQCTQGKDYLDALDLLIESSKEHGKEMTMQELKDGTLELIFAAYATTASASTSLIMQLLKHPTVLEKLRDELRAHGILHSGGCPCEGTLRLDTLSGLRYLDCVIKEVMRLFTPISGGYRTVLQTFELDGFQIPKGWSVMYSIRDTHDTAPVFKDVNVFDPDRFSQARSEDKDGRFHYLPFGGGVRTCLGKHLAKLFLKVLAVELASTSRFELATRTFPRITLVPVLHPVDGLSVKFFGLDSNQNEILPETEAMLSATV
Method: as §1, §2, §3

[3] = biological target: T3, RAR α (Homo sapiens, UniProt P10276); assay: RAR α Kd; type: binding; settings: last item of cell EC50/(EFFICACY)/Kd
T3 sequence (P10276 1-462): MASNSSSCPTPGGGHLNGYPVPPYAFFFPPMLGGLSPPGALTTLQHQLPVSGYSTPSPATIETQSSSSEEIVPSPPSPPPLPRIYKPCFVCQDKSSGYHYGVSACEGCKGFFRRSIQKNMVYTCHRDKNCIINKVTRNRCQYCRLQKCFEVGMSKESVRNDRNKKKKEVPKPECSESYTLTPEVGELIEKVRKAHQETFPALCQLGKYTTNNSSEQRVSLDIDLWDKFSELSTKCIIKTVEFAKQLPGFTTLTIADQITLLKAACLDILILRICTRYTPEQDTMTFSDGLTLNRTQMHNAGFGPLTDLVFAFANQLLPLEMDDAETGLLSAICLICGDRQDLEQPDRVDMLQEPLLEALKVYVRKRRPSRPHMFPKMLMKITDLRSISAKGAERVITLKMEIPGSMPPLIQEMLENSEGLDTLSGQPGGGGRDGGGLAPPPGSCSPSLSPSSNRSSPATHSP

[4] = biological target: T4, RAR β (Homo sapiens, UniProt P10826); assay: RAR β Kd; type: binding; settings: last item of cell EC50/(EFFICACY)/Kd
T4 sequence (P10826 1-455): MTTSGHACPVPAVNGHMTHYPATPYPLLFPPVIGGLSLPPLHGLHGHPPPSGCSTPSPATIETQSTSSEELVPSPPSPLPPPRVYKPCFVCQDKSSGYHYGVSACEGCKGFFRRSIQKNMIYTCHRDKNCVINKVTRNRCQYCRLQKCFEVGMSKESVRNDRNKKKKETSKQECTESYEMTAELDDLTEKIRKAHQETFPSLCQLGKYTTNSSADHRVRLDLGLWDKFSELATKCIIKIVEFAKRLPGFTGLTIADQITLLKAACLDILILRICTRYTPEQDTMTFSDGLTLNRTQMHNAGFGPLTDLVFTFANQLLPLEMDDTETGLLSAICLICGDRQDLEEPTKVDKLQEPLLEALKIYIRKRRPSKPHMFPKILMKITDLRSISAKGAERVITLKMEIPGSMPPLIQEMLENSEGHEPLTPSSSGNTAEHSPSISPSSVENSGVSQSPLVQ

[5] = biological target: T5, RAR γ (Homo sapiens, UniProt P13631); assay: RAR γ Kd; type: binding; settings: last item of cell EC50/(EFFICACY)/Kd
T5 sequence (P13631 1-454): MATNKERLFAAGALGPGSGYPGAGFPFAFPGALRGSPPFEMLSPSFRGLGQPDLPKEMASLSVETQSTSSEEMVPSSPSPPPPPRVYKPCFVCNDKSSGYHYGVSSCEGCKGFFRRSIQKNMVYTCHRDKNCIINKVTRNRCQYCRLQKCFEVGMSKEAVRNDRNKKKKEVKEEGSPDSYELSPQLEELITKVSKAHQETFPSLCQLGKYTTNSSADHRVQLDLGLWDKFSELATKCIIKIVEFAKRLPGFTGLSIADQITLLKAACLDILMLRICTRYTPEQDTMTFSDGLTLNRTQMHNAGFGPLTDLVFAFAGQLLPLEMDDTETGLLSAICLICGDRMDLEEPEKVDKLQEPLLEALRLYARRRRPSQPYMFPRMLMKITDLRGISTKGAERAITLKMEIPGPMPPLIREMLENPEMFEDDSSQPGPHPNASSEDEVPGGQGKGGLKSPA

Row | Compound | IC50 [1] [µM] | IC50 [2] [µM] | Kd [3] [µM] | Kd [4] [µM] | Kd [5] [µM]
1 | CN(C1CC1)C1CCC(C)(C)c2cc(NC(=O)Nc3ccc(C(=O)O)cc3)ccc21 (stereo not drawn) [Compound 21, 4-{3-[5-(Cyclopropyl-methyl-amino)-8,8-dimethyl-5,6,7,8-tetrahydro-naphthalen-2-yl]-ureido}-benzoic acid] | > 10 | 0.7 | > 10 | > 10 | > 10
2 | COc1cc(C#Cc2ccc(/C=C/C(=O)O)cc2)cc2c1C(N(C)C1CC1)CCC2(C)C (stereo not drawn) [Compound 29, (E)-3-{4-[5-(Cyclopropyl-methyl-amino)-4-methoxy-8,8-dimethyl-5,6,7,8-tetrahydro-naphthalen-2-ylethynyl]-phenyl}-acrylic acid] | 0.6 | > 10 | > 10 | > 10 | > 10
3 | CC(C)OC(=O)c1ccc(C#Cc2ccc(CC(=O)O)c(F)c2)cc1CN(C)C1CC1 [Compound 39, 4-(4-Carboxymethyl-3-fluoro-phenylethynyl)-2-[(cyclopropyl-methyl-amino)-methyl]-benzoic acid isopropyl ester] | 2.5 | > 10 | > 10 | > 10 | > 10
4 | CC(C)OC(=O)c1ccc(C#Cc2ccc(C(C)C(=O)O)cc2)cc1CN(C)C1CC1 (stereo not drawn) [Compound 40, 4-[4-(1-Carboxy-ethyl)-phenylethynyl]-2-[(cyclopropyl-methyl-amino)-methyl]-benzoic acid isopropyl ester] | 1.3 | > 10 | > 10 | > 10 | > 10
5 | CC(C)OC(=O)c1cccc(C#Cc2ccc(CC(=O)O)c(F)c2)c1 [Compound 44, 3-(4-Carboxymethyl-3-fluoro-phenylethynyl)-benzoic acid isopropyl ester] | 0.7 | 7.5 | > 10 | 8.17 | > 10

Continued by falling IC50 [1], values first:

Row | IC50 [1] [µM] | IC50 [2] [µM] | Kd [3] [µM] | Kd [4] [µM] | Kd [5] [µM] | Compound
6 | 0.6 | > 10 | 8.9 | > 10 | > 10 | CC(C)c1cc(C#Cc2cccc(/C=C/C(=O)O)c2)cc2c1OC(C)(C)CC2(C)C [Compound 15, 3-[3-(8-Isopropyl-2,2,4,4-tetramethyl-chroman-6-ylethynyl)-phenyl]-acrylic acid]
7 | 0.44 | > 10 | > 10 | > 10 | > 10 | C/C(=C/C(=O)O)c1ccc(C#Cc2cccc(CN(C)C3CC3)c2)cc1 [Compound 32, 3-(4-{3-[(Cyclopropyl-methyl-amino)-methyl]-phenylethynyl}-phenyl)-but-2-enoic acid]
8 | 0.25 | > 10 | > 10 | > 10 | 4.2 | COc1cc(C#Cc2ccc(C(C)(C)C(=O)O)cc2)cc2c1C(N(C)C1CC1)CCC2(C)C (stereo not drawn) [Compound 28, 2-{4-[5-(Cyclopropyl-methyl-amino)-4-methoxy-8,8-dimethyl-5,6,7,8-tetrahydro-naphthalen-2-ylethynyl]-phenyl}-2-methyl-propionic acid]
9 | 0.1 | > 10 | > 10 | > 10 | 0.317 | COc1cc(C#Cc2ccc(CC(=O)O)cc2)cc2c1C(N(C)C1CC1)CCC2(C)C (stereo not drawn) [Compound 25, {4-[5-(Cyclopropyl-methyl-amino)-4-methoxy-8,8-dimethyl-5,6,7,8-tetrahydro-naphthalen-2-ylethynyl]-phenyl}-acetic acid]
10 | 0.1 | > 10 | > 10 | > 10 | > 10 | CN(C1CC1)C1CCC(C)(C)c2cc(C#Cc3ccc(C(C)(C)C(=O)O)cc3)cc(C3CC3)c21 (stereo not drawn) [Compound 50, 2-{4-[4-Cyclopropyl-5-(cyclopropyl-methyl-amino)-8,8-dimethyl-5,6,7,8-tetrahydro-naphthalen-2-ylethynyl]-phenyl}-2-methyl-propionic acid]
11 | 0.06 | 8 | 0.397 | > 10 | > 10 | CC(C)Oc1cc(C#Cc2ccc(CC(=O)O)cc2)cc2c1OC(C)(C)CC2(C)C [Compound 13, [4-(8-Isopropoxy-2,2,4,4-tetramethyl-chroman-6-ylethynyl)-phenyl]-acetic acid]
12 | 0.028 | > 10 | 0.118 | 1.27 | > 10 | COc1cc(C#Cc2ccc(C(C)C(=O)O)cc2)cc2c1C(N(C)C1CC1)CCC2(C)C (stereo not drawn) [Compound 27, 2-{4-[5-(Cyclopropyl-methyl-amino)-4-methoxy-8,8-dimethyl-5,6,7,8-tetrahydro-naphthalen-2-ylethynyl]-phenyl}-propionic acid]
